Source: patent US20160287515A1, “REGIMEN AND METHOD FOR TREATMENT OF TYPE 2 DIABETES” (Omniblend Innovation Pty Ltd, priority 2013, published 2016)

System: subject on metformin (type 2 diabetes)
Assay: Blood glucose response after a standard meal under three treatment regimens (Example 1)
Type: in vivo, human
Conditions: control regimen: metformin 500 mg with the standard meal, no pre-meal drink; after overnight fasting
Description: This example compares the blood glucose response in a subject on a dosage of metformin of 500 mg (immediate release dosage) taken twice per day using three different treatment regimens after overnight fasting on separate dates.
The three treatment regimens were as follows: • 1. Regimen in accordance with the invention in which a dose of 500 mg mg of metformin as a (immediate release) tablet 30 minutes before a standard meal followed by a standard drink 15 minutes before the standard meal. Blood glucose levels with time are shown in plot 1 of FIG. 1. • 2. Control Regimen in which the metformin medication was administered with the standard meal without the pre-meal drink. Blood glucose levels with time are shown in plot 2 of FIG. 1. • 3. Comparison regimen in which the standard drink was administered 15 minutes before a meal and the metformin medication was administered with the standard meal. Blood glucose levels with time are shown in plot 3 of FIG. 1.
The standard pre-meal drink used in Example 1 was formed of the following composition: • 20 g WPC-80 • 5 g guar gum • 150 ml water
The drink was prepared by mixing the powder with water according to the following procedure: • 20 g of WPC80 (whey protein concentrate) and 5 g of guar gum were mixed together as a powder. […] The lid was removed ready for the participant to consume immediately. […]

CN(C)C(=N)N=C(N)N [metformin, Metformin]
post-prandial blood glucose with time (FIG. 1, Plot 2): significant rise in post-prandial glucose for a period of over 60 minutes
